Measured values reported in patent US9796713B2, “Tricyclic compounds as alpha-7 nicotinic acetylcholine receptor ligands” (BRISTOL-MYERS SQUIBB COMPANY, priority 2014, dated 2017).
Where two headings read alike, the source gives them in different places.

Molecular target: T1, α7-HI (Rattus norvegicus, UniProt Q05941)
T1 construct: expressed in transfected cells
Experiment: FLIPR Ca2+-sensitive fluorescence assay, α7-HI (agonist activity) in HEK 293 cells
Type: cell-based
Details: Ca2+ flux, HEK-293 cells expressing the channel, read-out: FLIPR α7-HI (EC50)
Description: I) α7 Nicotinic Acetycholine Receptor Binding. Membranes were prepared for binding using HEK293 cells stably expressing the rat α7 nicotinic acetycholine receptor (rat α7 nAChR). Cells were homogenized at 4° C. in hypotonic lysis buffer consisting of 10 mM Tris (pH 7.4), 5 mM EDTA and protease inhibitors and centrifuged at 32000×g for 20 minutes. The pellet was washed once in membrane wash buffer consisting of 50 mM Tris (pH 7.4), 1 mM EDTA and protease inhibitors and centrifuged at 32000×g for 20 minutes. This pellet was then resuspended in assay buffer consisting 50 mM KH2PO4 (pH 7.4 at 25° C.), 1 mM EDTA, 0.005% Triton-X 100 and 0.1% (v/v) Sigma Protease Inhibitor Cocktail. Aliquots were then frozen in dry ice/ethanol and kept at −80° C. until the day of the assay. II) A Ca^2+-Sensitive, Fluorescence-Based Assay α-7 for Nicotinic Acetylcholine Receptor Channel Function in Mammalian Cells (“FLIPR”). Summary: Lead compounds are evaluated for agonist activity at α-7, α3β4, α4αβ2, and α1β1δ1ε sub-types of nicotinic ACh receptor ion channels expressed in mammalian HEK 293 cells. Agonist potency and efficacy values are determined from kinetic fluorescence Ca^2+ influx measurements made using a 384 well FLIPR (Fluorescence Image Plate Reader). […] In this assay, channel expressing HEK cell lines seeded in 384 well assay plates are loaded with a membrane permeant fluorescent Ca^2+ indicator dye, whose 510 nm green emission signal increases in response to elevation of intracellular Ca^2+ concentration. The basal fluorescence from the cells is monitored in real time, followed by the acute addition of test compounds.
Materials and Methods: Reagents: The acetomethoxy (AM) ester of the Ca^2+ indicator dye Fluo-4 was obtained from InVitrogen, (Carlsbad, Calif.). Acetylcholine and all buffer constituents were purchased from Sigma Chemical Company, St. Louis, Mo. G418 and Minimal Essential Medium were purchased from InVitrogen Life Technologies, Carlsbad, Calif. Fetal bovine serum was purchased from (InVitrogen, Carlsbad, Calif.).
Cell Culture: HEK-293 cells were grown in Minimal Essential Medium containing 10% (v/v) fetal bovine serum at 37° C. in a 5% CO2 incubator. HEK-293 cells stably expressing the ion channels were grown in the same medium with the addition of 500 μg/ml G418.
Ca^2+ flux assays of Ca^2+ channels expressed in HEK-293 cells: HEK-293 cells expressing the ion channels of interest were plated in 384 well, black-walled, clear-bottomed, poly-D-lysine coated plates at a density of ˜20,000 cells/well in 20 μl of Minimal Essential Medium containing 10% (v/v) fetal bovine serum and incubated for 2 days at 29° C. in a 5% CO2 incubator. Prior to assay, cells were loaded with the Fluo-4 AM ester. […] Dye loading was allowed to proceed for 90 minutes at room temperature at which time the dye loading solution was removed and replaced with 40 μl/well of Hanks buffer. Cells loaded with dye were loaded onto a FLIPR384 (Molecular Devices, Sunnyvale, Calif.). Fluo-4 dye was excited using the 488 nm line of an argon laser. Emission was filtered using a 540+/−30 nm bandpass filter. For evaluation of the effects of test compounds using the Ca^2+ flux assay, compounds to be tested were provided in assay ready plates. For nicotinic receptor ion channel expressing cells, the assay was initiated by the addition of 20 μl/well of Hanks buffer containing test compounds. For all assays, data were collected at 1 Hz for 10 seconds (baseline), at which time the compound containing stimulus buffers are added, and further measurements collected at 0.33 Hz for 3 min.
Data Analysis: The statistical robustness of the nicotinic receptor Ca^2+ flux assays is determined from blanks and totals wells. […] The raw fluorescence units data files generated on the FLIPR plate reader are automatically exported and processed by in-house data analysis tools.

T1 sequence (Q05941 23-502): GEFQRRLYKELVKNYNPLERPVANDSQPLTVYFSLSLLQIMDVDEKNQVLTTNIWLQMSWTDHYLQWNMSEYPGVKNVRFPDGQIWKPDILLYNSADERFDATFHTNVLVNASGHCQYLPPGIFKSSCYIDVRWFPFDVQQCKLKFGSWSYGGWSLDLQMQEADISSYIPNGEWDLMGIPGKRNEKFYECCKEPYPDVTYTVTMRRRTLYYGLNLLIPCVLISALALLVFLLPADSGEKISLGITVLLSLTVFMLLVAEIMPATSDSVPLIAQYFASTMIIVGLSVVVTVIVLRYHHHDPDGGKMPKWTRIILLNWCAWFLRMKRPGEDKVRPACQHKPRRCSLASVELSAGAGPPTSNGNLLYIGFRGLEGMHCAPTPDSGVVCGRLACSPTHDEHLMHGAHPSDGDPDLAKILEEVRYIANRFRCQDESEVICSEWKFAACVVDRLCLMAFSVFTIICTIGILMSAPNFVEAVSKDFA

EC50 (Table 5) [nM]	Structure (SMILES)	EC50 (Table 4) [nM]
–	O=C(c1noc2ccccc12)N1C2CC3CN(CCC31)C2 (stereo not drawn) [Example 47, ((2S*,3aR*,5R*,7aS*)-benzo[d]isoxazol-3-yl(hexahydro-2,5-methanopyrrolo[3,2-c]pyridin-1(6H)-yl)methanone]	1300
–	O=C(c1n[nH]c2ccc(Br)cc12)N1C2CC3CN(CCC31)C2 (stereo not drawn) [Example 44, ((2S*,3aR*,5R*,7aS*)-(5-bromo-1H-indazol-3-yl)(hexahydro-2,5-methanopyrrolo[3,2-c]pyridin-1(6H)-yl)methanone]	> 100000
–	COc1ccc2c(C(=O)N3C4CC5CN(CCC53)C4)n[nH]c2c1 (stereo not drawn) [Example 43, ((2S*,3aR*,5R*,7aS*)-(6-methoxy-1H-indazol-3-yl)(hexahydro-2,5-methanopyrrolo[3,2-c]pyridin-1(6H)-yl)methanone]	23
–	O=C(c1ccc(Cl)cc1)N1C2CC3CN(CCC31)C2 (stereo not drawn) [Example 36, ((2S*,3aR*,5R*,7aS*)-(4-chlorophenyl)(hexahydro-2,5-methanopyrrolo[3,2-c]pyridin-1(6H)-yl)methanone]	> 100000
360	O=C(c1n[nH]c2ccccc12)N1C2CC3C1CCCN3C2 (stereo not drawn) [Example 50, (1H-indazol-3-yl)(octahydro-2,8-epiminoindolizin-9-yl)methanone]	–
> 100000	O=C(c1cc2cccc(Cl)c2s1)N1C2CC3C1CCCN3C2 (stereo not drawn) [Example 51, (7-chlorobenzo[b]thiophen-2-yl)(octahydro-2,8-epiminoindolizin-9-yl)methanone]	–
–	Cc1ccc2c(C(=O)N3C4CC5CN(CCC53)C4)n[nH]c2c1 (stereo not drawn) [Example 49, ((2S*,3aR*,5R*,7aS*)-(6-methyl-1H-indazol-3-yl)(hexahydro-2,5-methanopyrrolo[3,2-c]pyridin-1(6H)-yl)methanone]	4.2
–	O=C(c1cc(-c2ccccc2)n[nH]1)N1C2CC3CN(CCC31)C2 (stereo not drawn) [Example 38, ((2S*,3aR*,5R*,7aS*)-(hexahydro-2,5-methanopyrrolo[3,2-c]pyridin-1(6H)-yl)(3-phenyl-1H-pyrazol-5-yl)methanone]	> 100000
–	O=C(c1n[nH]c2ccccc12)N1[C@H]2C[C@@H]3C[N@@](CC[C@@H]31)C2 (single isomer, unassigned) [Example 34a]	7.5
